Broadly, the IC50 is the point on the concentration scale where inhibition reaches its midpoint. Low readings indicate greater potency in that assay, high ones weaker potency in that assay.

Assay [1] deals with αVβ3, αVβ5 and α5β1 integrins on SKOV-3 cancer cells. As to the kind of experiment: [^125I]echistatin displacement cell binding assay, SKOV-3. Also on record: species or system human. The conditions noted are these: SKOV-3 cells; displacement of [^125I]echistatin; 1 h, 37 °C. The protocol: (§1) In vitro integrin-binding of FPyPEGCBT-c(RGDfK) was evaluated using a standard displacement assay of [^125I]echistatin. U-87 MG and SKOV-3 cells were seeded in 96-well plates 24 h prior to the experiment (U-87 MG, 6 × 10^4 cells per well; SKOV-3, 3 × 10^4 cells per well). On the day of the experiment, the cells were washed twice with binding buffer (20 mM Tris pH 7.4, 150 mM NaCl, 2 mM CaCl2, 1 mM MgCl2, 1 mM MnCl2, 0.1 % BSA), then co-incubated for 1 h at 37 °C in binding buffer with 370 Bq/well [^125I]echistatin (Perkin Elmer, Schwerzenbach, Switzerland) and a concentration range (10^−9 to 10^−4 M) of FPyPEGCBT-c(RGDfK) or c(RGDfV) (PeptaNova, Sandhausen, Germany) as a reference peptide. Cells were then washed three times with binding buffer and lysed in 1 M NaOH. The cell-associated radioactivity was measured in a Wizard^2 2470 γ-counter (Perkin Elmer). The IC50 (Inhibitory Concentration of 50 %) values were calculated by fitting the data by nonlinear regression using GraphPad Prism (GraphPad software, La Jolla, CA, USA).
(§2) Fig. 2 Displacement of [^125I]echistatin by FPyPEGCBT-c(RGDfK). U-87 MG and SKOV-3 cancer cells were co-incubated for 1 h in 96-well plates with 370 Bq/well [^125I]echistatin and a concentration range (10^−9 to 10^−4 M) of FPyPEGCBT-c(RGDfK) or c(RGDfV). After lysis, the cell-associated radioactivity was measured in a γ-counter. […]

For assay [2], the system named is αVβ3, αVβ5 and α5β1 integrins on U-87 MG cancer cells. The assay can be described thus: [^125I]echistatin displacement cell binding assay, U-87 MG. The conditions noted are these: U-87 MG cells; displacement of [^125I]echistatin; 1 h, 37 °C. Also on record: species or system human. The protocol:
as §1, §2

As to c(RGDfV), the IC50 in assay [1] turned out to be 259 ± 2 nM; in assay [2] it was 600 nM.

For the origin of these results see PMC5843817, “Preclinical validations of [^18F]FPyPEGCBT-c(RGDfK): a ^18F-labelled RGD peptide prepared by ligation of 2-cyanobenzothiazole and 1,2-aminothiol to image angiogenesis” (EJNMMI Radiopharmacy and Chemistry, 2016).
